The text below walks through data of patent US20090105172A1, “Stabilized Aptamers to PSMA and Their Use as Prostate Cancer Therapeutics” (priority 2005, published 2009).

For one series, the target named is PSMA NAALADase activity (Homo sapiens, UniProt Q04609). The series can be described thus: NAALADase inhibition assay. It counts as biochemical. Here is the method:
These point mutant constructs were assessed for activity in terms of inhibition of PSMA NAALADase activity. The NAALADase assay was performed in 96 well format. PSMA aptamers were serially diluted in 1× reaction buffer (40 mM Tris-HCl, pH 7.4, 0.1 mM ZnSO4, 0.1 mg/in L BSA) in a standard 96 well plate to be tested at a final concentration range from 30 pM to 1 μM. The enzyme was prepared by diluting 30 μL of 100 nM PSMA into 8 mL of reaction buffer, and kept cool on ice. The substrate was prepared by adding 19 μl of NAAG [Glutamate-3,4-^3H], 50.8 Ci/mmol, 19.7 μM (Perkin-Elmer, Wellesley, Mass., NET1082) into 2.2 mL of reaction buffer.
Following preparation of all reagents, 4 μl of each serially diluted aptamer was added to a separate 96 well plate (the reaction plate). 76 μl of diluted enzyme was added to the corresponding wells containing aptamer. 80 μl of reaction buffer was added to one column of wells to serve as a background control. The diluted substrate and reaction plate were then moved to a room at 37° C. and allowed to equilibrate for 10 minutes. After temperature equilibration, 20 μl of the prepared substrate was added to each well using a 12 channel pipet for a final volume of 100 μl/well, and a final concentration of […] enzyme and 30 nM substrate per well. A column of wells containing enzyme and substrate only was used as a high control. The aptamer/enzyme/substrate reaction was incubated at 37° C. for 15 minutes, and stopped by the addition of 100 μl of quench buffer (100 mM sodium phosphate, pH 7.4, 2 mM EDTA).
To separate the cleavage products, […] and Glutamate, from the substrate, an AG 1-X8, 200-400 mesh, formate resin (BioRad, Hercules, Calif., # 140-1454) was used. The resin was prepared by forming a 1:1 slurry in H2O, and adding 140 μl per 96 well using a Multiscreen filter plate (Multiscreen, 1.2 μm filter plates (Millipore, Billerica, Mass., # MABVN1250)). […] The plate was sealed and read using a Packard Topcount Microplate Scintillation Counter. […]

For another series, the target named is T1, ECD PSMA (Homo sapiens, UniProt Q04609).
T1 construct: vector-derived N-terminal linker […]; made in house; host or cells: 293 Freestyle cells, pSecTag2B vector
T1 sequence (Q04609 with tags, fused parts or gaps): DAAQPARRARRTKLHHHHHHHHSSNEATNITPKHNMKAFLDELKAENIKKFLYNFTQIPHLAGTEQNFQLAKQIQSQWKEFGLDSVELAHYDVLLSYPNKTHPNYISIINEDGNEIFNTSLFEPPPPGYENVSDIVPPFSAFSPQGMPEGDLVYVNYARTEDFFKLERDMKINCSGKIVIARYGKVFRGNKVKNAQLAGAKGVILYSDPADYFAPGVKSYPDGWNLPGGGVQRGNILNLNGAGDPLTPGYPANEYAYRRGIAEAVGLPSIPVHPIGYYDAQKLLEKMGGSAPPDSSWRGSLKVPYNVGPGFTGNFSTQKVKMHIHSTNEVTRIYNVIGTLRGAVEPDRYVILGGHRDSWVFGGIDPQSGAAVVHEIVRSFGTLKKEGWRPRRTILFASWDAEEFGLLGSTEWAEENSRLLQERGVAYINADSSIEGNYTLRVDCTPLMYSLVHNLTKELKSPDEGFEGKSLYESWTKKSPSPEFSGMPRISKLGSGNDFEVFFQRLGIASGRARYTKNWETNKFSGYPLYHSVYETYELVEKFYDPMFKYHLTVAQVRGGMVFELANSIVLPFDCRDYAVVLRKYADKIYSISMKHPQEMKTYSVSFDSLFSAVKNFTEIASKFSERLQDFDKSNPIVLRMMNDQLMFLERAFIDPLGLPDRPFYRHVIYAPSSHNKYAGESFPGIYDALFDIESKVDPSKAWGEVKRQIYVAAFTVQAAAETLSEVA
The series can be described thus: Dot blot binding assay (nitrocellulose filter) with purified ECD PSMA. Conditions: A9 minimer, without tRNA. An excerpt:
Protein Purification of ECD of PSMA: An I.M.A.G.E. clone (5202715) encoding full length recombinant human PSMA was purchased from Open Biosystems (Clone EHS1001-18533, Huntsville, Ala.). PCR was used to amplify the extracellular portion of the full length clone. An oligo with an N-terminal histidine tag was designed to engineer a construct which lacks the transmembrane domain residues 1-44. The his-tagged extracellular domain (ECD) was subcloned into the pSecTag2B expression vector (Invitrogen, Carlsbad, Calif.). The ECD of PSMA was purified in house from transfected 293 Freestyle cells (ATCC, Manassas, Va.). The amino acid sequence of the expressed protein comprising an N-terminal linker sequence of […] followed by eight Histidines is listed below: […] VSDr[…]a[…]r[…]rYV […] (SEQ ID NO 5)
Dot Blot Binding Analysis. Dot blot binding assays were performed throughout the selections to monitor the protein binding affinity of the pools. For initial pool screening, trace ^32P-labeled pool RNA was combined with PSMA and incubated at room temperature for 30 min in 1×SHMCK buffer pH 7.4 (20 mM Hepes pH 7.4, 120 mM NaCl, 5 mM KCl, 1 mM MgCl2, 1 mM CaCl2) plus 0.1 mg/mL tRNA in a final volume of 30 μl. The mixture was applied to a dot blot apparatus (Schleicher and Schuell Minifold-1 Dot Blot, Acrylic, Keene, N.H.), assembled (from top to bottom) with nitrocellulose, nylon, and gel blot membranes. RNA that is bound to protein is captured on the nitrocellulose filter; whereas the non-protein bound RNA is captured on the nylon filter. […] The Round 9 pool was cloned and screened in a single point dot blot assay using 100 nM PSMA (0 nM PSMA was used as a negative control). Clone transcripts were 5′ end labeled with ^32-P ATP. Likely binders were than assayed for KD determination by the blot assay conditions described directly above, but without tRNA, using an 8 point PSMA titration with a constant RNA concentration. […] Both of the clones screened were unique sequences in the Round 9 selection pool.
In order to identify the core structural elements required for ARC955 binding to PSMA, the 3′-boundaries of the clone was determined through alkaline hydrolysis. The parent RNA transcript was labeled at the 5′-end with γ-^32P ATP and T4 polynucleotide kinase. Radiolabeled ligands were subjected to partial alkaline hydrolysis and then selectively bound in solution to ECD PSMA (purified in house) at 100 nM before being passed through nitrocellulose filters (Centrex MF 1.5 mL, 0.45 μm, Schleicher & Schuell, Keene N.H.). Retained oligonucleotides were resolved on 8% denaturing polyacrylamide gels. The smallest oligonucleotide bound to PSMA defined the 3′-boundary. On the basis of the boundary experiments as well as visual inspection of predicted folds, truncated constructs were synthesized. Clones were then assayed by dot blot as previously described to determine their KD. […] The binding curve for ARC1091 in the dot blot assay is depicted in FIG. 5A, and the predicted secondary structure of ARC1091 is depicted in FIG. 5B. The KD and maximum % bound for the 3 minimized constructs with the overall highest PSMA affinity, as determined by a dot blot binding assay, are listed in Table 4. For the minimized rGmH aptamers described in Table 5 below, the guanosine triphosphates are 2′-OH and the adenosines triphosphates, cytidine triphosphates and uridine triphosphates are 2′-OMe. Unless noted otherwise, the individual sequences are represented in the 5′ to 3′ orientation. In some embodiments, the invention comprises aptamers with a nucleic acid sequence as described in Table 4 below. In some embodiments, the nucleic acid sequence of an aptamer described in Table 4 below additionally comprises a 3′ cap (e.g., an inverted dT cap), and/or 5′ amine (NH2) modification to facilitate chemical coupling, and/or conjugation to a high molecular weight, non-immunogenic compound (e.g., PEG). […]

Chain of PSMA NAALADase activity (Q04609 with tags, fused parts or gaps limits assumed): as the sequence (Q04609 with tags, fused parts or gaps) above

Consider “GGAGGAfCfCGAAAAAGAfCfCfUGAfCfUfUfCfUAfUAfCfUAAGfUfCfUAfCGfUfUfCfCfUfCfCA (GGAGGACCGAAAAAGACCUGACUUCUAUACUAAGUCUACGUUCCUCCA; 2'-fluoro at 7, 8, 17, 18, 19, 22, 23, 24, 25, 26, 28, 30, 31, 35, 36, 37, 39, 41, 42, 43, 44, 45, 46, 47, other sugars and backbone not given here) [ARC591, 48-nt minimer of A9]”, for which the IC50 with PSMA NAALADase activity (read-out: apparent IC50, inhibition of NAALADase activity) came to 6.7 nM. Also, the “activity in the NAALADase inhibition assay” value in the series with PSMA NAALADase activity (relative to parent) was “retained full functional activity”. For the same substance, the affinity with ECD PSMA, expressed as Kd, was 3.4 nM.

As usually defined, the IC50 is the concentration that inhibits the measured activity by half. In general, Kd refers to a measure of binding affinity in units of concentration. Read a low Kd as higher affinity.
